# pIC50: −log10 of the molar value. Structures can show the parent of a compound that is named as a salt. Where two headings read alike, the source gives them in different places.
# What was measured:
# NaV1.6 [1] = target: T1, NaV1.6 (Homo sapiens (Human), UniProt Q9UQD0); experiment: Electrophysiological Assay (EP), patch voltage clamp, NaV1.6; format: cell-based; conditions: HEK-293 cells, whole-cell patch clamp;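 also: sodium current recorded at ambient temperature, channels held inactivated then briefly repolarized to −150 mV for 20 ms before a test pulse, control currents in 0.5% DMSO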
# NaV1.6 [2] = target: T1, NaV1.6; experiment: Sodium Influx Assay (Flux), NaV1.6; format: cell-based; conditions: Trex HEK293 cells, ANG2 dye, inactivated state;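 also: Tetracycline-induced cells, compounds applied for one hour at room temperature with modulators holding channels open, IC50 from percent inhibition of sodium influx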
# NaV1.5 [3] = target: T2, NaV1.5 (Homo sapiens (Human), UniProt Q14524); experiment: Electrophysiological Assay (EP), patch voltage clamp, NaV1.5; format: cell-based; conditions: HEK-293 cells, whole-cell patch clamp
# NaV1.5 [4] = target: T2, NaV1.5; experiment: Sodium Influx Assay (Flux), NaV1.5
# NaV1.1 [5] = target: T3, NaV1.1 (Homo sapiens (Human), UniProt P35498); experiment: Sodium Influx Assay (Flux), NaV1.1; format: cell-based; conditions: Trex HEK293 cells, ANG2 dye, inactivated state;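 also: channels co-expressed with human β1 subunit and held open by modulators, cells exposed to compounds for one hour at room temperature, IC50 from percent inhibition of influx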
# NaV1.1 [6] = target: T3, NaV1.1; experiment: Electrophysiological Assay (EP), patch voltage clamp, NaV1.1; format: cell-based; conditions: HEK-293 cells, whole-cell patch clamp;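 also: sodium current block measured at ambient temperature, holding at fully inactivating potential, 20 ms repolarization to −150 mV before test pulse, versus 0.5% DMSO control currents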
# NaV1.5 [7] = target: T2, NaV1.5
# [8] = read-out: Flux NaV1.5 IC50, Trex HEK293 cells, ANG2 dye, inactivated state
# T2 sequence (Q14524 other isoform, or with tags, fused parts or gaps): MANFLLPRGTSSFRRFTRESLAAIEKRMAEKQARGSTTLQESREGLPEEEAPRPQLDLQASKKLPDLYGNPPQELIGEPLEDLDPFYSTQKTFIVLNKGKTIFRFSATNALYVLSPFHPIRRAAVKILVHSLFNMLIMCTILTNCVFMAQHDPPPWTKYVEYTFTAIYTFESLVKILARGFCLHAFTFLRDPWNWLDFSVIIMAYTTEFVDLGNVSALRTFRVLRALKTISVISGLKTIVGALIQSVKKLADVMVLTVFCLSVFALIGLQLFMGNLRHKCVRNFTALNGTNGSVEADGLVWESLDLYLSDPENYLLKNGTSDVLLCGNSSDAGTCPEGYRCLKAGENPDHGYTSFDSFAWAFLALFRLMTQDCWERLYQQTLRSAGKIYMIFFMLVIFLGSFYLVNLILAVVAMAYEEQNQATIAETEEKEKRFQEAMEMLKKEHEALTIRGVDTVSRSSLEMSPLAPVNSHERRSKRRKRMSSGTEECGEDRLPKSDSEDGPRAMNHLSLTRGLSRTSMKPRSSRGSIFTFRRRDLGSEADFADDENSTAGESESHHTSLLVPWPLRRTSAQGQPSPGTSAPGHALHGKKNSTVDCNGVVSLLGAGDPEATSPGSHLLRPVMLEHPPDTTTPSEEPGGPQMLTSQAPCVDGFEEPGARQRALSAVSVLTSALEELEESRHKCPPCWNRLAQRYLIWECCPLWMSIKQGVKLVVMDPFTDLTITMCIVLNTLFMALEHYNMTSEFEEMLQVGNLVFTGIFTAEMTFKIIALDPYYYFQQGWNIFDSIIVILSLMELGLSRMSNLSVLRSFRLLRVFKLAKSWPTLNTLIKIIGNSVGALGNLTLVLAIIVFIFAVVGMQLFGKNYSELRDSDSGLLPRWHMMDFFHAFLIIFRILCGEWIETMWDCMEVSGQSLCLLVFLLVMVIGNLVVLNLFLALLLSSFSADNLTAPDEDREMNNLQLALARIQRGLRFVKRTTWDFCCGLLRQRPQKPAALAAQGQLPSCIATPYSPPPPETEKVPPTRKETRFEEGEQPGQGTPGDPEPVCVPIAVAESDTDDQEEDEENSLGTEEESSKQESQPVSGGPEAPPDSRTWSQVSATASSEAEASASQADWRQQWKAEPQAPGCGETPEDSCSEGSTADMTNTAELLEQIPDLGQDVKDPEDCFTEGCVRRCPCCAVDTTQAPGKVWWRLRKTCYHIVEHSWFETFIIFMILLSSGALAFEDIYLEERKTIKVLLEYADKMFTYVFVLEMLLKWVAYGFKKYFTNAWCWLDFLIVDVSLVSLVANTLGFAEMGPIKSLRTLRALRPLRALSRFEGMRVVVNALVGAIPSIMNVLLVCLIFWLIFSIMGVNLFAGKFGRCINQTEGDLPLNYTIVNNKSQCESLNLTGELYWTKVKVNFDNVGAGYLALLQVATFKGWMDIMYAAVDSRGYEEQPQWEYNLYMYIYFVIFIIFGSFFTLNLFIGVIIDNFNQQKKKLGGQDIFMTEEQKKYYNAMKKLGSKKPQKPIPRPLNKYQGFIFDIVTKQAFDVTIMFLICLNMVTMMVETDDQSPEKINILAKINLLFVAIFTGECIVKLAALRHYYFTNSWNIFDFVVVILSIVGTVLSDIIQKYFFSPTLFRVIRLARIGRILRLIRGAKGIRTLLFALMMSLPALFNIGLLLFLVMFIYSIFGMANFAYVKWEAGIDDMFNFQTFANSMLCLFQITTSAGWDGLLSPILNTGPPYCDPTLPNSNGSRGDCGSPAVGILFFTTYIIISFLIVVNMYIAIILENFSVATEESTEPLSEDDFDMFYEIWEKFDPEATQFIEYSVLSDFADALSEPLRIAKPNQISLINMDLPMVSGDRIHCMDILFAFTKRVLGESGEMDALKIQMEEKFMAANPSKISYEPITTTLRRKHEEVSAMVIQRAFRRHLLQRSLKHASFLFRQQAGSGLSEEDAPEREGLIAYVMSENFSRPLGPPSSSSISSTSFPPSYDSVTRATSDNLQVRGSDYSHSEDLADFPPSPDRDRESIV
# T1 sequence (Q9UQD0 whole entry): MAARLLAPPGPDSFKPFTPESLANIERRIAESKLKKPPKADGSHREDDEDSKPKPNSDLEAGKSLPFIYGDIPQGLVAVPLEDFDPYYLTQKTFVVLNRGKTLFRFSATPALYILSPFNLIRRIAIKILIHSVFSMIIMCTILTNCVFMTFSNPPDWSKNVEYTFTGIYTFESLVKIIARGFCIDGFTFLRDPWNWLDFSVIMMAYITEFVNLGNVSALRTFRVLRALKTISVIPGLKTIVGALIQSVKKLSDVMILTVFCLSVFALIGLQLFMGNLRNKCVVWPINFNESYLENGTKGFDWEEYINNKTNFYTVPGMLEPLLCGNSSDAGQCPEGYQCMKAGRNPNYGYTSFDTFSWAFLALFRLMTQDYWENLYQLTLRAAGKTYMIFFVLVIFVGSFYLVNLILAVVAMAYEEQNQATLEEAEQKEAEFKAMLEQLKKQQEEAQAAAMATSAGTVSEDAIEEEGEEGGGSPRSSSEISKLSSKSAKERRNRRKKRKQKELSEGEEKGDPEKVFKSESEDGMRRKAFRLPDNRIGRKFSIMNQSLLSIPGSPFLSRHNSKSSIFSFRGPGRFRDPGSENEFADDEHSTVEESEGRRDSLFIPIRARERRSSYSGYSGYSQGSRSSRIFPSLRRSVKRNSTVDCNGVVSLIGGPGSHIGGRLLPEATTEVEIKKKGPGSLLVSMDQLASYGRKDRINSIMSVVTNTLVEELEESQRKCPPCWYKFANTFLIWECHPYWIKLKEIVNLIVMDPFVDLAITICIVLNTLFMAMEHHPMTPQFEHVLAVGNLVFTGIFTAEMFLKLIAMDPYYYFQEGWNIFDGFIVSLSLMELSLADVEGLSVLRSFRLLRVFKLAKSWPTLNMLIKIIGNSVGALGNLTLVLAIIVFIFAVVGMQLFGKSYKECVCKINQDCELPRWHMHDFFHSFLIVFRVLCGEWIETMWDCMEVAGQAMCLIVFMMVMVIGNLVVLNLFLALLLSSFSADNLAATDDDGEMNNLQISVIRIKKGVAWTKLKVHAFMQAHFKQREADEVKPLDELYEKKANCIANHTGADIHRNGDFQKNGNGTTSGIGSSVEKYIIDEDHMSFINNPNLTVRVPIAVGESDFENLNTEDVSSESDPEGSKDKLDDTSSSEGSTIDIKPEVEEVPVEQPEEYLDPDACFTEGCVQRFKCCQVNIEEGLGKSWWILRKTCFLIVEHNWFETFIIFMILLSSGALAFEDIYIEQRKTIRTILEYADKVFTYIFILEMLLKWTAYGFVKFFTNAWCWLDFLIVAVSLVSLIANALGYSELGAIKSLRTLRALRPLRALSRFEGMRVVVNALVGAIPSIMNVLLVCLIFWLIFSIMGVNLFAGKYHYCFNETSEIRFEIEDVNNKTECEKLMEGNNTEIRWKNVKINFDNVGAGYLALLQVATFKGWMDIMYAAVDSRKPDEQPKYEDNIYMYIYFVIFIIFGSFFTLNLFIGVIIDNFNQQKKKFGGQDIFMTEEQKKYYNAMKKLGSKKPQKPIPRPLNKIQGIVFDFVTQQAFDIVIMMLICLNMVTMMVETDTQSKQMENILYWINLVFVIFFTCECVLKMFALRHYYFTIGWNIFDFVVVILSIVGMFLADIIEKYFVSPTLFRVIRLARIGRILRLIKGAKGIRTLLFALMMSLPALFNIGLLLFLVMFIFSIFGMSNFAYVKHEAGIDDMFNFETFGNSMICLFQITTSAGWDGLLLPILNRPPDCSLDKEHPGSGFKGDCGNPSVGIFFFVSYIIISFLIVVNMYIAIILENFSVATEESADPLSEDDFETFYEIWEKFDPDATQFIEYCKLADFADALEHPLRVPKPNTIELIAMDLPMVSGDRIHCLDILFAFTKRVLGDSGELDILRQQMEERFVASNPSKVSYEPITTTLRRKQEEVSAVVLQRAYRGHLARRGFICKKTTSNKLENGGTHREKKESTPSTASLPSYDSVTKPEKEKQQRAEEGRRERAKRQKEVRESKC
pIC50 (NaV1.6 [1]),pIC50 (NaV1.6 [2]),pIC50 (NaV1.1 [5]),pIC50 (NaV1.1 [6]),SMILES,pIC50 (NaV1.5 [3]),pIC50 (NaV1.5 [4]; [8]),pIC50 (NaV1.5 [4]),pIC50 (NaV1.5 [7])
7.26,6.24,4.87,5.01,"C[C@H](Nc1ccc(S(=O)(=O)Nc2cscn2)c(F)c1Cl)c1cc(Cl)ccc1F [Example 190, (S)-3-chloro-4-((1-(5-chloro-2-fluorophenyl)ethyl)amino)-2-fluoro-N-(thiazol-4-yl)benzenesulfonamide]",4.52,4.59,–,–
7.51,6.79,4.68,5.00,"O=S(=O)(Nc1cscn1)c1c(F)cc(NCc2ccccc2CN2CCC2)cc1F [Example 272, 4-((2-(azetidin-1-ylmethyl)benzyl)amino)-2,6-difluoro-N-(thiazol-4-yl)benzenesulfonamide formate]",4.52,4.52,–,–
7.60,6.76,5.27,5.31,"Cc1cc(S(=O)(=O)Nc2ccncn2)c(F)cc1N[C@@H](C)c1cc(Cl)ccc1F [Example 275, (S)-4-((1-(5-chloro-2-fluorophenyl)ethyl)amino)-2-fluoro-5-methyl-N-(pyrimidin-4-yl)benzenesulfonamide]",–,4.52,–,–
7.37,6.42,5.42,5.25,"CC[C@H](Nc1cc(F)c(S(=O)(=O)Nc2ccncn2)cc1Cl)c1ccccc1Cl [Example 277, (S)-5-chloro-4-((1-(2-chlorophenyl)propyl)amino)-2-fluoro-N-(pyrimidin-4-yl)benzenesulfonamide 2,2,2-trifluoroacetate]",5.00,5.03,–,–
7.96,6.90,4.83,4.84,"O=S(=O)(Nc1cscn1)c1c(F)cc(NCc2c(F)ccc(F)c2CN2CCC2)cc1F [Example 283, 4-((2-(azetidin-1-ylmethyl)-3,6-difluorobenzyl)amino)-2,6-difluoro-N-(thiazol-4-yl)benzenesulfonamide]",4.52,4.55,–,–
6.33,5.82,4.60,5.00,"C[C@H](Nc1cc(F)c(S(=O)(=O)Nc2ncco2)cc1Cl)c1cc(F)ccc1F [Example 287, (S)-5-Chloro-4-((1-(2,5-difluorophenyl)ethyl)amino)-2-fluoro-N-(oxazol-2-yl)benzenesulfonamide]",–,4.52,–,–
7.44,6.74,4.93,5.00,"O=S(=O)(Nc1cscn1)c1cc(Cl)c(NCc2c(F)ccc(F)c2CN2CCC2)cc1F [Example 288, 4-((2-(Azetidin-1-ylmethyl)-3,6-difluorobenzyl)amino)-5-chloro-2-fluoro-N-(thiazol-4-yl)benzenesulfonamide hydrochloride]",–,4.75,–,–
7.96,7.00,5.22,5.00,"O=S(=O)(Nc1cscn1)c1c(F)cc(NCc2c(Cl)cccc2CN2CCC2)cc1F [Example 290, 4-((2-(azetidin-1-ylmethyl)-6-chlorobenzyl)amino)-2,6-difluoro-N-(thiazol-4-yl)benzenesulfonamide 2,2,2-trifluoroacetate]",–,4.60,–,–
6.69,6.37,4.90,5.00,"O=S(=O)(Nc1cscn1)c1cc(Cl)c(NCc2c(F)ccc(F)c2CO)cc1F [Example 293, 5-Chloro-4-((3,6-difluoro-2-(hydroxymethyl)benzyl)amino)-2-fluoro-N-(thiazol-4-yl)benzenesulfonamide]",–,4.52,–,–
6.58,6.02,5.60,5.25,"CC[C@H](Nc1cc(F)c(S(=O)(=O)Nc2cccc(F)n2)cc1Cl)c1ccccc1F [Example 316, (S)-5-chloro-2-fluoro-4-((1-(2-fluorophenyl)propyl)amino)-N-(6-fluoropyridin-2-yl)benzenesulfonamide]",–,5.23,–,–
7.05,6.90,5.10,5.00,"CN1CC(Oc2cccc(F)c2CNc2cc(F)c(S(=O)(=O)Nc3cscn3)c(F)c2)C1 [Example 326, 2,6-difluoro-4-((2-fluoro-6-((1-methylazetidin-3-yl)oxy)benzyl)amino)-N-(thiazol-4-yl)benzenesulfonamide formate]",–,4.90,–,–
6.73,6.59,4.52,5.00,"O=S(=O)(Nc1cccnn1)c1c(F)cc(NCc2c(F)cccc2CN2CCC2)cc1F [Example 333, 4-((2-(azetidin-1-ylmethyl)-6-fluorobenzyl)amino)-2,6-difluoro-N-(pyridazin-3-yl)benzenesulfonamide formate]",–,4.52,–,–
7.07,6.41,5.32,5.00,"O=S(=O)(Nc1cscn1)c1cc(Cl)c(N[C@H](c2cc(F)ccc2F)C(F)F)cc1F [Example 335, (R)-5-chloro-4-((1-(2,5-difluorophenyl)-2,2-difluoroethyl)amino)-2-fluoro-N-(thiazol-4-yl)benzenesulfonamide]",–,4.67,–,–

# More lines, now with the values behind:
SMILES,pIC50 (NaV1.6 [1]),pIC50 (NaV1.6 [2]),pIC50 (NaV1.1 [5]),pIC50 (NaV1.1 [6]),pIC50 (NaV1.5 [3]),pIC50 (NaV1.5 [4]; [8]),pIC50 (NaV1.5 [4]),pIC50 (NaV1.5 [7])
"C[C@H](Nc1cc(F)c(S(=O)(=O)Nc2cscn2)cc1Cl)c1cc(Cl)ccc1F [Example 5, (S)-5-chloro-4-((1-(5-chloro-2-fluorophenyl)ethyl)amino)-2-fluoro-N-(thiazol-4-yl)benzenesulfonamide]",6.82,6.11,5.32,5.00,5.00,5.27,–,–
"C[C@H](Nc1cc(F)c(S(=O)(=O)Nc2nccs2)cc1Cl)c1ccccc1F [Example 45, (S)-5-chloro-2-fluoro-4-((1-(2-fluorophenyl)ethyl)amino)-N-(thiazol-2-yl)benzenesulfonamide]",7.89,6.97,5.93,6.27,5.29,5.20,–,–
"O=S(=O)(Nc1nccs1)c1cc(Cl)c(NCc2cccc3ccncc23)cc1F [Example 61, 5-chloro-2-fluoro-4-((isoquinolin-8-ylmethyl)amino)-N-(thiazol-2-yl)benzenesulfonamide]",8.40,7.68,5.95,6.55,5.00,5.05,–,–
"C[C@H](Oc1cc(F)c(S(=O)(=O)Nc2nccs2)cc1Cl)c1ccccc1F [Example 116, (S)-5-chloro-2-fluoro-4-(1-(2-fluorophenyl)ethoxy)-N-(thiazol-2-yl)benzenesulfonamide]",7.43,6.32,5.24,5.00,4.85,5.34,–,–
"CCC(Nc1ccc(S(=O)(=O)Nc2ncns2)cc1Cl)c1ccccc1 (stereo not shown) [Example 139, 3-chloro-4-(1-phenylpropylamino)-N-(1,2,4-thiadiazol-5-yl)benzenesulfonamide]",7.42,6.97,5.89,–,≤ 4.52,–,4.89,–
"C[C@H]1CCCN1Cc1cccc(F)c1CNc1cc(F)c(S(=O)(=O)Nc2cscn2)c(F)c1 [Example 158, (S)-2,6-difluoro-4-((2-fluoro-6-((2-methylpyrrolidin-1-yl)methyl)benzyl)amino)-N-(thiazol-4-yl)benzenesulfonamide formate]",–,6.90,4.52,–,–,–,–,4.52
"CN(Cc1cccc(F)c1CNc1cc(F)c(S(=O)(=O)Nc2cscn2)c(F)c1)CC1CC1 [Example 187, 4-((2-(((cyclopropylmethyl)(methyl)amino)methyl)-6-fluorobenzyl)amino)-2,6-difluoro-N-(thiazol-4-yl)benzenesulfonamide formate]",–,7.19,4.91,–,–,–,–,4.52
"CC1(C)CCN1Cc1c(F)cccc1CNc1cc(F)c(S(=O)(=O)Nc2cscn2)c(F)c1 [Example 198, 4-((2-((2,2-dimethylazetidin-1-yl)methyl)-3-fluorobenzyl)amino)-2,6-difluoro-N-(thiazol-4-yl)benzenesulfonamide formate]",–,6.41,4.59,–,–,–,–,4.52
"C[C@H](Nc1cc(F)c(S(=O)(=O)Nc2cscn2)cc1Cl)c1cc(CCN2CCC2)ccc1F [Example 257, (S)-4-((1-(5-(2-(azetidin-1-yl)ethyl)-2-fluorophenyl)ethyl)amino)-5-chloro-2-fluoro-N-(thiazol-4-yl)benzenesulfonamide formate]",–,6.31,5.21,–,–,–,–,5.08
"O=S(=O)(Nc1cscn1)c1c(F)cc(NCc2c(Cl)cccc2CN2CC3(COC3)C2)cc1F [Example 295, 4-((2-((2-oxa-6-azaspiro[3.3]heptan-6-yl)methyl)-6-chlorobenzyl)amino)-2,6-difluoro-N-(thiazol-4-yl)benzenesulfonamide formate]",7.38,6.42,4.92,5.00,–,4.52,–,–

# Source: patent publication US11174268B2, “Benzenesulfonamide compouds and their use as therapeutic agents” (Xenon Pharmaceuticals Inc., priority 2016, dated 2021)
